Results on eight compounds are retold here after US12398154B2, “Azaquinazoline pan-KRas inhibitors” (Mirati Therapeutics, Inc., priority 2020, dated 2025).

Bounds are passed on as bounds.

Assay [1] has as its target T1, KRas G13D (Homo sapiens, UniProt P01116, G13D).
T1 construct: Biotinylated KRas (corresponding to amino acids 1-169, produced at Accelegan Inc.); biotin (biotinylated); purchased Accelegan Inc
Description: KRas binding assay (TR-FRET displacement). Background: In TR-FRET formats the signal depends on donor and acceptor labels being close together.
Description: (§2) The ability of a compound to bind to KRas was measured using a TR-FRET displacement assay. […] After a 60-minute incubation at room temperature, the reaction was measured using a BMG LABTECH CLARIO star Plus via TR-FRET. […] The POC values were fit to a 4-parameter IC50 equation and the IC50 value reported.

In assay [2] the target is T2, KRas Q61H (Homo sapiens, UniProt P01116, Q61H).
T2 construct: Biotinylated KRas (corresponding to amino acids 1-169, produced at Accelegan Inc.); biotin (biotinylated); purchased Accelegan Inc
T2 sequence (P01116 1-169 isoform P01116-2 Q61H): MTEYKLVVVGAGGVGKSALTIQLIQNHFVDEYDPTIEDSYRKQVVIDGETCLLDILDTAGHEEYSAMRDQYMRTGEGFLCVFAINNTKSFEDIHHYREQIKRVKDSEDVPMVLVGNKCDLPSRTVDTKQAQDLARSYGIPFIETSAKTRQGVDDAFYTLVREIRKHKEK
Description: KRas binding assay (TR-FRET displacement).
Description: as §2

The subject of assay [3] is phospho-ERK in A549 (G12S) cells. Description: Inhibition of KRas-mediated phosphorylation of ERK (in-cell western). Type of assay: cell-based. The following applies: Homo sapiens, 3 hours compound, phospho-ERK normalized to GAPDH. The procedure, abridged:
(§1)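 IC50 came from 4-parameter dose-response fits of phospho-ERK (Thr202/Tyr204)/GAPDH signal, expressed as % DMSO control. Compounds were applied for 3 h at 0.5% DMSO before fixation, methanol permeabilization and antibody imaging by in-cell western.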

In assay [4] the test system is phospho-ERK in AsPC-1 (G12D) cells. The description is as above. The following applies: Homo sapiens, ASPC1, 3 h, 3 hours compound, phospho-ERK normalized to GAPDH. The assay is classed as cell-based. A digest of the protocol:
as §1

The test system of assay [5] is phospho-ERK in HCT116 (G13D) cells. The assay is described as above. The assay is classed as cell-based. The following applies: Homo sapiens, HCT-116, 3 hours compound, phospho-ERK normalized to GAPDH. The procedure, abridged: as §1
Assay [6] deals with phospho-ERK in MKN1 (WTdep) cells. The description is as above. The assay is classed as cell-based. The following applies: Homo sapiens, MKN-1, 3 hours compound, phospho-ERK normalized to GAPDH. A digest of the protocol: as §1
The test system of assay [7] is phospho-ERK in NCI-H358 (G12C) cells. Described as above. Type of assay: cell-based. The following applies: Homo sapiens, 3 hours compound, phospho-ERK normalized to GAPDH. The procedure, abridged:
as §1

Assay [8] deals with phospho-ERK in NCI-H460 (Q61H) cells. The description is as above. The following applies: Homo sapiens, NCI-H460, 3 h, 3 hours compound, phospho-ERK normalized to GAPDH. Type of assay: cell-based. A digest of the protocol: as §1
Assay [9] relates to phospho-ERK in NCI-H727 (G12V) cells. The description is as above. Type of assay: cell-based. As to conditions: Homo sapiens, NCI-H727, 3 h, 3 hours compound, phospho-ERK normalized to GAPDH. The procedure, abridged:
as §1

Assay [10] has as its system phospho-ERK in PSN-1 (G12R) cells. The assay is described as above. The assay is classed as cell-based. As to conditions: Homo sapiens, PSN1, 3 hours compound, phospho-ERK normalized to GAPDH. A digest of the protocol:
as §1

Assay [11] has as its target KRas G12D (Homo sapiens, UniProt P01116, G12D). The experiment in a line: biochemical.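 Note: TR-FRET displacement binding assay on KRas, read after a one-hour incubation at room temperature, IC50 fitted from percent-of-control values.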
Description: as §2
Assay [12] addresses KRas G12V (Homo sapiens, UniProt P01116, G12V). The experiment in a line: biochemical.
Description: as §2
In assay [13] the target is KRas G12R (Homo sapiens, UniProt P01116, G12R). Description: biochemical.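 Note: TR-FRET displacement assay of compound binding to KRas, read after one hour at room temperature, potency from a four-parameter fit of percent-of-control values.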
Chain of KRas G12R (P01116 1-169 isoform P01116-2 G12R): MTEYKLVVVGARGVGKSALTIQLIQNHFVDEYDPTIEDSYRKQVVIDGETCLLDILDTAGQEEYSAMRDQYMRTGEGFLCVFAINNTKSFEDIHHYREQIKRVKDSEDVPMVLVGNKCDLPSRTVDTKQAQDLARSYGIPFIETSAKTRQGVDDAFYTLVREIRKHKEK
Description: as §2
Assay [14] deals with KRas G12A (Homo sapiens, UniProt P01116, G12A). Description: biochemical.
Chain of KRas G12A (P01116 1-169 isoform P01116-2 G12A): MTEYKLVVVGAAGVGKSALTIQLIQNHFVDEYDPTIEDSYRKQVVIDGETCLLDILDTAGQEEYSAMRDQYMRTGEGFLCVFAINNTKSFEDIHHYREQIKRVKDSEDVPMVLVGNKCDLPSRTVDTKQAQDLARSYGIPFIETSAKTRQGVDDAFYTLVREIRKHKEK
Description: as §2
Assay [15] concerns the target KRas G12S (Homo sapiens, UniProt P01116, G12S). The experiment in a line: biochemical.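 Note: TR-FRET displacement binding to KRas, read after one hour incubation at room temperature, IC50 from four-parameter fit of percent of control.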
Description: as §2
The target of assay [16] is KRas G12C (Homo sapiens, UniProt P01116, G12C). The experiment in a line: biochemical.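 Note: binding to KRas assessed by TR-FRET displacement after one hour incubation at room temperature, potency fitted from percent-of-control values.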
Chain of KRas G12C (P01116 1-169 isoform P01116-2 G12C): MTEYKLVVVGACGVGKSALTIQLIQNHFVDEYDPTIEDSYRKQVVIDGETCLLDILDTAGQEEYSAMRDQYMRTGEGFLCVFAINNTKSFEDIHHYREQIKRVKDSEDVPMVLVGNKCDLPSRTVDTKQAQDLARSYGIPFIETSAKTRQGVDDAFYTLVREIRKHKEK
Description: as §2
Assay [17] addresses KRas WT (Homo sapiens, UniProt P01116). The experiment in a line: biochemical.
Description: as §2
Assay [18] deals with pERK in ASPC1 cells. The experiment in a line: Inhibition of KRas phosphorylation of ERK (Cisbio HTRF pERK assay). As to conditions: Homo sapiens, ASPC1, read-out: Inhibition (HTRF IC50) of KRas-mediated Phosphorylation of ERK, AsPC-1.
Description: To harvest cells from flask using 0.05% Trypsin/EDTA solution. Add 10 mL of media to stop trypsinizing. Pipette the cells into a conical bottom 50 mL centrifuge tube and centrifuge 5 min×1000 rpm. • 2. Re-suspend the cell pellet in media, take a cell count, and then adjust the cell density using fresh media. • 3. Seed 6,000 cells into cell culture plate with 50 μL media. […] Incubate cell plate overnight in a 37° C., 5% CO2 incubator. • Compound titrations • 1. Use Tecan to complete the compound addition. Compounds start from 10 uM top, 3-fold dilution, and 10 doses. The final DMSO concentration is 0.8%. Dispensed 0.2 uM Trametinib as Min control. • 2. Incubate cell plate for 3 hrs in the incubator. • Detection with cisbio pERK HTRF kit • 1. […] At the end of the compound treatment, flick-off the media. • 3. Add 35 μL of lysis buffer per well using a Multidrop Combi. Then place on a plate agitator shaking at 300 rpm at 4° C. for 40 mins. • 4. Make up the HTRF antibody buffer. For each assay plate, mix 50 μL of d2-conjugate antibody with 950 μL of detection buffer. Similarly, mix 50 μL of Cryptate antibody with 950 μL of detection buffer. Then mix the two diluted antibodies together. • 5. Dispense 3.4 μL the antibody buffer to wells of an empty assay plate. Seal the plate and centrifuge plate 30 sec×1000 rpm. • 6. At the end of the 4° C. lysis, centrifuge the lysate plates 3 mins×1500 rpm. • 7. Use the Bravo to transfer 13.6 μL of lysate from cell culture plate to assay plate.
Then incubate assay plate for 2 hrs at room temperature. […] At the end of incubation, read plate on the Envision after centrifuging plate 30 sec× • 1000 rpm.
The subject of assay [19] is pERK in H727 cells. Described as above. The following applies: Homo sapiens, NCI-H727, read-out: Inhibition (HTRF IC50) of KRas-mediated Phosphorylation of ERK, H727.
The subject of assay [20] is pERK in HCT116 cells. The assay is described as above. The following applies: Homo sapiens, HCT-116, read-out: Inhibition (HTRF IC50) of KRas-mediated Phosphorylation of ERK, HCT116.

Chain of KRas WT (P01116 1-169 isoform P01116-2): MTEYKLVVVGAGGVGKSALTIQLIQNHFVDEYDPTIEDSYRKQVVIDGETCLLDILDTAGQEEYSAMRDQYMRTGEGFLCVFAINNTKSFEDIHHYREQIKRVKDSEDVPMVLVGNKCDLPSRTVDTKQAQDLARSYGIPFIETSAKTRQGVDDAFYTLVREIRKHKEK
Chain of KRas G12S (P01116 1-169 isoform P01116-2 G12S): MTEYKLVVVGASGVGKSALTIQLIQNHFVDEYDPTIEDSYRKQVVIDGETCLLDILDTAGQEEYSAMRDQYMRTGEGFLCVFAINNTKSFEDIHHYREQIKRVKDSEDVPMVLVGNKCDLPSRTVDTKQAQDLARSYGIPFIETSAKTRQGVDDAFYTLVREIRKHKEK
T1 sequence (P01116 1-169 isoform P01116-2 G13D): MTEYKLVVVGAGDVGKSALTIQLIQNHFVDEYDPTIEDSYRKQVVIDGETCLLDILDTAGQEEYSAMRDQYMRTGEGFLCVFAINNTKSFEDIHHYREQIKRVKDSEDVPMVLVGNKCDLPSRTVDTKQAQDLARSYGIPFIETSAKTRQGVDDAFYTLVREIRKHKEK
Chain of KRas G12D (P01116 1-169 isoform P01116-2 G12D): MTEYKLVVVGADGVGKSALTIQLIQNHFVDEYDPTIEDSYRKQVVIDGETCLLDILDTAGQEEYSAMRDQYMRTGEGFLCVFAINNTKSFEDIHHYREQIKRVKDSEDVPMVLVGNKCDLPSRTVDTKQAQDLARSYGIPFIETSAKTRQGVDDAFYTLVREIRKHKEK
Chain of KRas G12V (P01116 1-169 isoform P01116-2 G12V): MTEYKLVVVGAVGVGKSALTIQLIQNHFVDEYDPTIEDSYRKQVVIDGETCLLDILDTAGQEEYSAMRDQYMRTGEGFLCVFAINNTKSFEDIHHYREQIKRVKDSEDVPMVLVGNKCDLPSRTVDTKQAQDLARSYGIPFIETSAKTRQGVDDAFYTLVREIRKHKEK

In the case of `CCc1c(F)ccc2cc(O)cc(-c3ncc4c(N5CCCCC5)nc(OC[C@@]56CCCN5C[C@H](O)C6)nc4c3F)c12` [Example 7], the IC50 came out at 3 nM in assay [1]; 3 nM in assay [2]; 1090 nM in [3]; 802 nM in assay [4]; 627 nM in assay [5]; 32 nM in [6]. Further, the IC50 in assay [7] is 199 nM; in assay [8] it was 416 nM; in assay [9] it was 530 nM; in assay [10], 3590 nM; in [11], at most 2 nM; in assay [12] it was at most 2 nM. The IC50 in assay [13] was at most 2 nM; in [14], at most 2 nM; in assay [15], at most 2 nM; in assay [16] it was at most 2 nM; in assay [17] it was 3 nM.
For the compound `C#Cc1c(F)ccc2cccc(-c3ncc4c(N5CCC[C@@](C)(O)C5)nc(OCC56CCCN5CCC6)nc4c3F)c12` [Example 14, (R)-1-(7-(8-ethynyl-7-fluoronaphthalen-1-yl)-8-fluoro-2-((hexahydro-1H-pyrrolizin-7a-yl)methoxy)pyrido[4,3-d]pyrimidin-4-yl)-3-methylpiperidin-3-ol], the IC50 in [1] is 61 nM; in assay [2] it was 80 nM; in [3], at least 10000 nM; in assay [4], 847 nM; in assay [5], 1590 nM; in assay [6], 1380 nM. Also, the concentration for half-maximal inhibition (IC50) in [7] is 725 nM; in [8], at least 10000 nM; in [9], 4580 nM; in [10], at least 10000 nM; in assay [11] it was 29 nM; in assay [12], 52 nM. For the same compound, the IC50 in assay [13] was found to be 109 nM; in [14], 58 nM; in assay [15] it was 58 nM; in [16], 51 nM; in assay [17], 51 nM.
With `CCc1c(F)ccc2cccc(-c3ncc4c(N5CCC[C@@](C)(O)C5)nc(OCC56CCCN5CCC6)nc4c3F)c12` [Example 15], the IC50 in assay [1] is 42 nM; in assay [2], 52 nM; in assay [3], 3640 nM; in [4] it was 731 nM; in [5] it was 5160 nM; in assay [6], 1260 nM. Further, the IC50 in assay [7] is 495 nM; in [8], at least 10000 nM; in [9], at least 10000 nM; in assay [10], at least 10000 nM; in assay [11] it was 24 nM; in assay [12], 42 nM. The IC50 is 81 nM in assay [13]; 38 nM in [14]; 42 nM in assay [15]; 37 nM in [16]; 41 nM in [17].
On to `CCc1c(F)ccc2cc(O)cc(-c3ncc4c(N5CCC[C@@](C)(O)C5)nc(OCC56CCCN5CCC6)nc4c3F)c12` [Example 27], for which the IC50 in assay [1] was at most 2 nM; in [2] it was at most 2 nM; in [3], 300 nM; in assay [4], 45 nM; in assay [5] it was 88 nM; in [6] it was 20 nM. For the same compound, the IC50 is 22 nM in assay [7]; 33 nM in assay [8]; 232 nM in assay [9]; 2920 nM in assay [10]; at most 2 nM in assay [11]; at most 2 nM in assay [12]. The IC50 in assay [13], in assay [14], in assay [15], in assay [16] and in assay [17] was at most 2 nM in each case.
Consider `CCc1c(F)ccc2cccc(-c3ncc4c(N5CCCC6(CNC(=O)C6)C5)nc(OC[C@@]56CCCN5C[C@H](F)C6)nc4c3F)c12` (stereo partly drawn) [Example 37, 7-(7-(8-ethyl-7-fluoronaphthalen-1-yl)-8-fluoro-2-(((2R,7aS)-2-fluorotetrahydro-1H-pyrrolizin-7a(5H)-yl)methoxy)pyrido[4,3-d]pyrimidin-4-yl)-2,7-diazaspiro[4.5]decan-3-one], for which the IC50 stood at 88 nM in assay [1]; 88 nM in assay [2]; 8950 nM in assay [3]; 2210 nM in assay [4]; 4360 nM in assay [5]; 1670 nM in [6]. Also, the IC50 in assay [7] is 1720 nM; in assay [8], at least 10000 nM; in [9], at least 10000 nM; in assay [10] it was at least 10000 nM; in assay [11], 41 nM; in assay [12], 57 nM. The IC50 in assay [13] is 93 nM; in [14] it was 52 nM; in assay [15], 63 nM; in assay [16], 56 nM; in [17], 68 nM.
For `C#Cc1c(F)ccc2cccc(-c3ncc4c(N5CCC[C@@](C)(O)C5)nc(OC[C@@]56CCCN5C[C@H](F)C6)nc4c3F)c12` [Example 51, (R)-1-(7-(8-ethynyl-7-fluoronaphthalen-1-yl)-8-fluoro-2-(((2R,7aS)-2-fluorohexahydro-1H-pyrrolizin-7a-yl)methoxy)pyrido[4,3-d]pyrimidin-4-yl)-3-methylpiperidin-3-ol], the IC50 in assay [1] is 36 nM; in [2], 50 nM; in assay [3] it was 2640 nM; in assay [4], 586 nM; in assay [5] it was 3720 nM; in assay [6] it was 873 nM. Moreover, the IC50 in assay [7] was 715 nM; in assay [8] it was at least 10000 nM; in assay [9], 7230 nM; in [10], at least 10000 nM; in assay [11] it was 21 nM; in assay [12], 35 nM. The IC50 in [13] was found to be 69 nM; in assay [14] it was 36 nM; in assay [15], 38 nM; in assay [16], 35 nM; in assay [17] it was 32 nM.
Regarding `CCc1c(F)ccc2cc(O)cc(-c3ncc4c(N5CCCC6(CNC(=O)N6)C5)nc(OC[C@@]56CCCN5C[C@H](F)C6)nc4c3F)c12` (stereo partly drawn) [Example 133], the IC50 in assay [3] was 55 nM; in assay [4], 156 nM; in [5], 650 nM; in assay [6], 171 nM; in assay [7] it was 41 nM; in [8], 49 nM. Besides, the IC50 was 612 nM in [9]; at least 10000 nM in [10]; at most 2 nM in [11]; at most 2 nM in assay [12]; at most 2 nM in assay [13]; 144 nM in assay [18]. For the same compound, the half-inhibitory concentration (IC50) worked out at 246 nM in [19] and 360 nM in [20].
For `CCc1c(F)ccc2cc(O)cc(-c3ncc4c(NCCC(N)=O)nc(OC[C@@]56CCCN5C[C@H](F)C6)nc4c3F)c12` [Example 141], the IC50 in assay [3] was 875 nM; in assay [4] it was 210 nM; in assay [5], at least 10000 nM; in assay [6], 282 nM; in assay [7], 88 nM; in assay [8], 1110 nM. In addition, the IC50 was at least 10000 nM in assay [9]; at least 10000 nM in [10]; at most 2 nM in assay [11]; at most 2 nM in assay [12]; at most 2 nM in assay [13]; 641 nM in assay [18]. Further, in assay [19], the IC50 was found to be 2130 nM.

As a reminder, the IC50 is the point on the concentration scale where inhibition reaches its midpoint.
